Like-named read-outs stand apart in the source and are kept apart here.
Legend:
THP-1 = assay: Cytotoxicity assay (MTS/MTT), THP-1 cells; type: cell-based, human; details: read-out: Inhibitory Concentration 50 for Cell Growth (IC50)
From the text: THP-1: human leukemia cell strains

A431 Cells = assay: Cytotoxicity assay (MTS/MTT), A431 cells; type: cell-based, human
From the text: A431: epidermoid cell strains

PC-3 Cells = assay: Cytotoxicity assay (MTS/MTT), PC-3 cells; type: cell-based, human; details: for IC50: PC-3 Cells, read-out: Inhibitory Concentration 50 for Cell Growth (IC50)
Procedure: (§1) Cytotoxicity Assay (MTS Assay)
PC-3: human prostate cancer cell strains
(§2) Cells were inoculated in RPMI 1640 cell culture solution with 10% fetal bovine serum (supplemented with 100 ku/L of penicillin, streptomycin, respectively). The petri dishes were left in a cell incubator containing 5% CO2 under the temperature of 37° C. The medium was changed every 2-3 days, and was digested with 0.25% trypsin solution. The cells were subcultured and collected.
(§3) The cells in the exponential phase were formulated into cell suspensions with desired concentrations using RPMI 1640 cell culture solutions containing 10% fetal bovine serum. The suspensions were added into 96-well cell culture plates according to 3,000-5,000 cells per well (100 μl). After being cultured for 24 hr, 100 μl of assay compounds having different concentrations were added into each well. Four parallel tests were conducted for each well. The supernatants were discarded after being cultured for 72-120 hr. 100 μl of 0.5 mg/ml MTT fresh serum-free culture solutions were added into each well. The resultant supernatants were discarded after being cultured for 4 hr at 37° C. Formazan was dissolved with 200 μl DMSO. The resulting mixture was gently shaken for 15 min. Optical absorption values (OD-values) at 570 nm of detection wavelength and 450 nm of reference wavelength were measured with ELISA reader.
The data were represented by x±s. Inhibition Ratio=(OD values in control groups−OD values in administration groups)/OD values in control groups×100%. Anti-cancer effects were represented by maximum inhibition ratio Imax and inhibitory concentration 50 (IC50). Drawings were obtained with software MicroCal Origin. Inhibition curves of assay compounds for inhibiting the growth of tumor cells were fitted by the four-parameter program Logistic in the software so as to give the inhibitory concentration 50 (IC50:μg/ml) for inhibiting the proliferation of tumor cells. […]

U937 Cells = assay: Cytotoxicity assay (MTS/MTT), U937 cells; type: cell-based, human; details: for IC50: U937 Cells, read-out: Inhibitory Concentration 50 for Cell Growth (IC50)
Procedure: as §1
U937: human lymphoma cell strains
as §2, §3
(§4) The data were represented by x±s. Inhibition Ratio=(OD values in control groups−OD values in administration groups)/OD values in control groups×100%. Anti-cancer effects were represented by maximum inhibition ratio Imax and inhibitory concentration 50 (IC50). Drawings were obtained with software MicroCal Origin. Inhibition curves of assay compounds for inhibiting the growth of tumor cells were fitted by the four-parameter program Logistic in the software so as to give the inhibitory concentration 50 (IC50:μg/ml) for inhibiting the proliferation of tumor cells.
The exposure concentrations of the assay compounds were 0.001 μg/ml, 0.003 μg/ml, 0.009 μg/ml, 0.027 μg/ml, 0.082 μg/ml, 0.247 μg/ml, 0.741 μg/ml, 2.222 μg/ml, 6.667 μg/ml and 20 μg/ml. […]

NCI H460 = assay: Cytotoxicity assay (MTS/MTT), NCI-H460 cells; type: cell-based, human; details: read-out: Inhibitory Concentration 50 for Cell Growth (IC50)
From the text: NCI-H460: human lung cancer cell strains

HL-60 cells = assay: Cytotoxicity assay (MTS/MTT), HL-60 cells; type: cell-based, human; details: for Inhibition Ratio (%): HL-60 cells, concentration of 1 μM
Procedure: as §1
HL-60: human leukemia cell strains
as §2, §3, §4
The exposure concentrations of the assay compounds were 0.001 μg/ml, 0.003 μg/ml, 0.009 μg/ml, 0.027 μg/ml, 0.082 μg/ml, 0.247 μg/ml, 0.741 μg/ml, 2.222 μg/ml, 6.667 μg/ml and 20 μg/ml. The exposure concentrations of adriamycin (as positive drugs) were 1.25 μg/ml, 5 μg/ml and 20 μg/ml. In 96-well plates, 3,000-5,000 cells were inoculated in each well. Four parallel assays were conducted for each concentration.

DU-145 = assay: Cytotoxicity assay (MTS/MTT), DU-145 cells; type: cell-based, human; details: read-out: Inhibitory Concentration 50 for Cell Growth (IC50)
Procedure: as §1
DU-145: human prostate cancer cell strains
as §2, §3
(§5) The data were represented by x±s. […]

Kunming mice = assay: Maximum tolerated dose (MTD) in vivo of mice
Procedure: Assays on Maximum Tolerated Dose (MTD) In Vivo of Mice
(1) Assay animals: 9 Kunming Mice, of which five were male and four were female, with a weight of 20-22 g (purchased from Lab Animals Center of Chinese Academy of Medical Sciences, License No. scxk (jin) 2005-0001)
(2) Assay medicine: compound in Example 1
Kunming mice were 9, of which 5 were male and 4 were female. Each mouse was administered the compound in Example 1 (20 mg/kg, iv) with a dose volume of 20 ml/kg.
The process for preparing a solution of the compound in Example 1: 4.53 mg of the compound in Example 1 was weighed and dissolved by adding 40 μL of DMSO (dimethylsulfoxide). 340 μL of RH40 (polyoxyethylene castor oil) were added. After mixing homogeneously, 4.156 mL of physiological saline was added to the mixture. After mixing homogeneously, the mixture was filtered with 0.45 μm filter membrane to give a 1 mg/ml solution of the compound in Example 1.
Observation time: 14 days
Observation indicators: weight, appearance, breath, action, reflection, defecation

786-O = assay: Cytotoxicity assay (MTS/MTT), 786-O cells; type: cell-based, human
Procedure: as §1
786-O: human kidney cancer cell strains
as §2, §3, §5

Hep G2 = assay: Cytotoxicity assay (MTS/MTT), Hep G2 cells; type: cell-based, human; details: read-out: Inhibitory Concentration 50 for Cell Growth (IC50)
Procedure: as §1
HePG-2: human liver cancer cell strains
as §2, §3, §5

A549 = assay: Cytotoxicity assay (MTS/MTT), A549 cells; type: cell-based, human
Procedure: as §1
A549: human lung cancer cell strains
as §2, §3, §5

K562 = assay: Cytotoxicity assay (MTS/MTT), K562 cells; type: cell-based, human
Procedure: as §1
K562: human leukemia cell strain
as §2, §3, §5

NCI H446 = assay: Cytotoxicity assay (MTS/MTT), NCI-H446 cells; type: cell-based, human; details: read-out: Inhibitory Concentration 50 for Cell Growth (IC50)
Procedure: as §1
NCI-H446: human lung cancer cell strains
as §2, §3, §5

[1] = 20 mg/kg via tail vein, observed for 14 days
[2] = single intravenous injection 20 mg/kg, 9 mice, 14 days observation

SMILES: COc1cccc2c1C(=O)c1c(O)c3c(c(O)c1C2=O)C[C@@](O)(C(=O)CO)C[C@@H]3O[C@H]1C[C@H](N)[C@@H](O)[C@H](C)O1 [Epirubicin]
- IC50 (THP-1; Homo sapiens): 0.067 µM
- IC50 (A431 Cells; Homo sapiens, A-431, read-out: Inhibitory Concentration 50 for Cell Growth (IC50)): 0.018 µM
- IC50 (PC-3 Cells; Homo sapiens): 0.11 µM
- IC50 (U937 Cells; Homo sapiens, U-937): 0.01 µM
- IC50 (NCI H460; Homo sapiens): 0.025 µM

SMILES: COc1cccc2c1C(=O)c1c(O)c3c(c(O)c1C2=O)C[C@@](O)(C(=O)CO)C[C@@H]3O[C@H]1C[C@H](n2cccc2)[C@@H](O)[C@H](C)O1 [Example 1, 3′-pyrrolyl epirubicin]
- IC50 (THP-1): 0.009 µM
- IC50 (HL-60 cells; HL-60, read-out: Inhibitory Concentration 50 for Cell Growth (IC50)): 0.357 µM
- Inhibition Ratio (%) (HL-60 cells): 80%
- IC50 (DU-145): 0.0086 µM
- IC50 (A431 Cells; read-out: Inhibitory Concentration 50 for Cell Growth (IC50)): 0.0063 µM
- Findings on dissection at the end of the test (Kunming mice; 20 mg/kg via tail vein, dissected after 14 days): no abnormal phenomena were observed
- Change on the weights of the mice (Kunming mice; [1]): no significant change on the weights
- Death of mice (Kunming mice; [1]): no animal died
- Other indicators (appearance, breath, action, reflection, defecation) (Kunming mice; [1]): not obviously abnormal
- Death Number (Kunming mice; [2]): 0
- Mortality Rate (%) (Kunming mice; [2]): 0%
- Average Weight (g) of Mice (Kunming mice; single intravenous injection 20 mg/kg, Day 1): 20.9 g
- Average Weight (g) of Mice (Kunming mice; single intravenous injection 20 mg/kg, Day 2): 20.2 g
- Average Weight (g) of Mice (Kunming mice; single intravenous injection 20 mg/kg, Day 3): 20.4 g
- Average Weight (g) of Mice (Kunming mice; single intravenous injection 20 mg/kg, Day 5): 19.7 g
- Average Weight (g) of Mice (Kunming mice; single intravenous injection 20 mg/kg, Day 6): 20.2 g
- Average Weight (g) of Mice (Kunming mice; single intravenous injection 20 mg/kg, Day 7): 19.8 g
- Average Weight (g) of Mice (Kunming mice; single intravenous injection 20 mg/kg, Day 8): 20.0 g
- Average Weight (g) of Mice (Kunming mice; single intravenous injection 20 mg/kg, Day 9): 20.1 g
- Average Weight (g) of Mice (Kunming mice; single intravenous injection 20 mg/kg, Day 10): 20.5 g
- Average Weight (g) of Mice (Kunming mice; single intravenous injection 20 mg/kg, Day 11): 20.4 g
- Average Weight (g) of Mice (Kunming mice; single intravenous injection 20 mg/kg, Day 12): 20.4 g
- Average Weight (g) of Mice (Kunming mice; single intravenous injection 20 mg/kg, Day 13): 20.8 g
- Average Weight (g) of Mice (Kunming mice; single intravenous injection 20 mg/kg, Day 14): 21.1 g
- IC50 (786-O; 786-O, read-out: Inhibitory Concentration 50 for Cell Growth (IC50)): 0.074 µM
- Effect on growth of tumor cell strain (786-O; kidney cancer 786-0): strong inhibitory effects
- IC50 (Hep G2): 0.027 µM
- IC50 (A549; A549, read-out: Inhibitory Concentration 50 for Cell Growth (IC50)): 0.206 µM
- Effect on growth of tumor cell strain (A549; lung cancer A549): strong inhibitory effects
- IC50 (PC-3 Cells): 0.01 µM
- Effect on growth of tumor cell strain (PC-3 Cells; human prostate cancer PC-3): strong inhibitory effects
- IC50 (K562; K562, read-out: Inhibitory Concentration 50 for Cell Growth (IC50)): 0.044 µM
- Effect on growth of tumor cell strain (K562; human leukemia K562): strong inhibitory effects
- IC50 (U937 Cells): 0.012 µM
- Effect on growth of tumor cell strain (U937 Cells; lymphoma U937): strong inhibitory effects
- IC50 (NCI H460): 0.014 µM
- IC50 (NCI H446): 0.16 µM

SMILES: COc1cccc2c1C(=O)c1c(O)c3c(c(O)c1C2=O)CC(O)(C(=O)CO)CC3OC1CC(N2C(=O)CCC2=O)C(O)C(C)O1 (centres unmarked) [Example 4, 3′-succinimidyl epirubicin]
- Inhibition Ratio (%) (HL-60 cells): 62%

SMILES: COc1cccc2c1C(=O)c1c(O)c3c(c(O)c1C2=O)CC(O)(C(=O)CO)CC3OC1CC(N2C(=O)CCCC2=O)C(O)C(C)O1 (centres unmarked) [Example 5, 3′-glutarimido epirubicin]
- Inhibition Ratio (%) (HL-60 cells): 35%

SMILES: COc1cccc2c1C(=O)c1c(O)c3c(c(O)c1C2=O)C[C@@](O)(C(=O)CO)C[C@@H]3O[C@H]1C[C@H](N2C(=O)C=CC2=O)[C@@H](O)[C@H](C)O1 [Example 6, 3′-maleimidyl epirubicin]
- Inhibition Ratio (%) (HL-60 cells): 43%

SMILES: COc1cccc2c1C(=O)c1c(O)c3c(c(O)c1C2=O)C[C@@](O)(C(=O)CO)C[C@@H]3O[C@H]1C[C@H](N2C(=O)c3cccnc3C2=O)[C@@H](O)[C@H](C)O1 [Example 7, 3′-(pyridino-(2,3)succinimidyl)epirubicin]
- Inhibition Ratio (%) (HL-60 cells): 10%

SMILES: COc1cccc2c1C(=O)c1c(O)c3c(c(O)c1C2=O)C[C@@](O)(C(=O)CO)C[C@@H]3O[C@H]1C[C@H](N2C(=O)c3ccccc3C2=O)[C@@H](O)[C@H](C)O1 [Example 8, 3′-(benzo-(2,3)succinimidyl)epirubicin]
- Inhibition Ratio (%) (HL-60 cells): 71%

Source: patent US8877720B2, “Epirubicin derivatives” (Tianjin Hemay Bio-Tech Co., Ltd., priority 2009, dated 2014)
